What was measured:
[1] = tested on: cervical squamous cell carcinoma and endocervical adenocarcinoma (CESC) patient-derived organoids; experiment: ATP-based viability assay in patient-derived organoids, CESC; type: cell-based; conditions: Homo sapiens, CESC PDOs, read-out: IC50, organoid viability
Description: Organoid culture was performed according to previously established protocols. Briefly, we procured patient-derived tissue samples provided and technically manipulated by Accurate International Biotechnology Co., Ltd. Subsequently, these samples were subjected to mechanical and enzymatic dissociation to disaggregate the tissue into single cells or small clusters, while preserving cellular integrity. Following this initial step, the isolated cells or tissue fragments were embedded within a 3D ECM scaffold, such as Matrigel or collagen. The ECM scaffold served as a supportive substrate, promoting cellular self-organization and mimicking native tissue architecture. Additionally, a precisely formulated cocktail of growth factors, cytokines, and signaling molecules tailored to the specific tissue of interest was meticulously formulated and added to the culture medium to facilitate organoid growth and maintenance.

[2] = target: T1, NAT10 (Homo sapiens, UniProt Q9H0A0); experiment: NAT10 degradation in SiHa cells, Western blot; type: cell-based
T1 construct: depletion of total NAT10 protein in SiHa (human) and U14 (murine) CCa cell lines; endogenous in cells; host or cells: SiHa (human cervical cancer cell line)
T1 sequence (Q9H0A0 1-1025): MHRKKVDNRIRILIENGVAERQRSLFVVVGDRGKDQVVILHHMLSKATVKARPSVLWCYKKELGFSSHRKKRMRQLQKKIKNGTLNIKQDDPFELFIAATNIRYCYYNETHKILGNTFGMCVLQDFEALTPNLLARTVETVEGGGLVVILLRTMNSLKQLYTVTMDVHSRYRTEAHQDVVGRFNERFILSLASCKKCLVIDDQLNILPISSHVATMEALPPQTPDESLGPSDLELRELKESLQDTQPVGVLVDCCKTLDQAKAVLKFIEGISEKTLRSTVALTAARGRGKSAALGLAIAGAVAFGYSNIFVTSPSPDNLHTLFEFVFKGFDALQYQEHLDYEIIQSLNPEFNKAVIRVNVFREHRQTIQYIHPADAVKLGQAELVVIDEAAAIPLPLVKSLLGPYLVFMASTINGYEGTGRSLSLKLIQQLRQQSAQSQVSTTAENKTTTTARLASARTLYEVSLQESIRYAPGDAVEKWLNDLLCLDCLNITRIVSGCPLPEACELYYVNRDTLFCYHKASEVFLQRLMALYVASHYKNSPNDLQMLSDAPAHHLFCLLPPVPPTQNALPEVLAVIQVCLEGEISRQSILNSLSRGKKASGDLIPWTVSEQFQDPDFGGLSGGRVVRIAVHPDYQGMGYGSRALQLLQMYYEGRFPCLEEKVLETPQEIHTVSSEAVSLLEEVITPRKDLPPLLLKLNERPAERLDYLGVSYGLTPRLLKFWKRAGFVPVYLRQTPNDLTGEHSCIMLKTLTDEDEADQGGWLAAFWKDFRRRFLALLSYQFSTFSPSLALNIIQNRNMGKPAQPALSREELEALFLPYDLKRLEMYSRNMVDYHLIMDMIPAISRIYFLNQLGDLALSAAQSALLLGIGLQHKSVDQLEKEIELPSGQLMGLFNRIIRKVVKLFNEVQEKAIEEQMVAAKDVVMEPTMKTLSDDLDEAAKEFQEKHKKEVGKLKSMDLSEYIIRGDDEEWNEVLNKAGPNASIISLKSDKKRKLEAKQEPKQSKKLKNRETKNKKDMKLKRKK
Description: The human CCa cell line SiHa and the normal epithelial foreskin fibroblast line HFF-1 were purchased from the Cell Bank of the Chinese Academy of Sciences. Additionally, murine cervical carcinoma cell line U14 (RRID:CVCL_9U56) was purchased from Boster Company. HFF-1 and U14 cells were cultured in Dulbecco’s modified Eagle’s medium (DMEM) (Gibco, USA) supplemented with 10% heat-inactivated fetal bovine serum (FBS; Gibco, USA), while SiHa cells were incubated in RPMI 1640 medium (Gibco, USA) in a humid atmosphere with 5% CO2 at 37 °C. For hypoxia exposure, the cells were incubated in a sealed culture tank containing 5% CO2 and 0.1% O2 (MGC, Japan) for 36 h.
(§1) RIPA lysis buffer (Beyotime, China) mixed with 1% protease inhibitor (Sigma, US) was added to the cells, and a sample of total protein was obtained and then loaded onto an 8% or 12% polyacrylamide gel. The gel was placed in a buffer solution, and an electric current was applied. The separated proteins were subsequently transferred from the gel onto a PVDF membrane. Next, the membrane was blocked with 5% milk for 1 h to prevent nonspecific antibody binding. The membranes were subsequently incubated with anti-NAT10 (1:1000, Abcam, USA), anti-PD-L1 (1:1000, Proteintech, China), anti-HIF-1α (1:1000, Abmart, China), and anti-β-tubulin (1:1000, Proteintech, China) primary antibodies for 12 h. Afterward, the membrane was sequentially washed with 1× TBST and incubated for 1 h with an antimouse secondary antibody (1:6000, Elabscience, China) or antirabbit secondary antibody (1:6000, Elabscience, China). The target proteins were detected via chemiluminescence with a ChemiDoc MP Imaging System (Bio-Rad, US).

[3] = tested on: PD-L1; experiment: PD-L1 protein level in SiHa cells, Western blot; type: cell-based, human; conditions: 36 h
Description: as §1

[4] = tested on: RNA ac4C modification; experiment: ac4C RNA dot blot in SiHa cells; type: cell-based, human; conditions: 20 μM, 36 h, vs Remodelin-treated and NAT10-knockdown groups
Description: RNA was extracted from cells via an RNA extraction kit (TransGen, China) and denatured by heating to 65 °C for 5 min in the presence of 2× RNA denaturation buffer (Solarbio, China) followed by an equal amount of 20x SSC buffer (Beyotime, China). A nylon membrane (Yeasen, China) was used to immobilize the denatured RNA by dotting RNA samples onto the membrane and cross-linking the RNA to the membrane via UV light. The samples were stained with methylene blue and photographed. Furthermore, the membrane was blocked with 5% milk and incubated with an anti-ac4C primary antibody (1:1000, Abcam, US) for 12 h. After the unbound primary antibody was washed away, the membrane was incubated with a secondary antibody (1:6000, Elabscience, China). The membrane was then washed to remove unbound secondary antibodies, and a detection reagent (Bio-Rad, US) was added to visualize the RNA bands via chemiluminescence with a ChemiDoc MP Imaging System (Bio-Rad, US).

N#Cc1ccc(-c2csc(N(CCCCCCC(=O)N3CCN(c4cccc5c4C(=O)N(C4CCC(=O)NC4=O)C5=O)CC3)N=C3CCCC3)n2)cc1 (centres unmarked) [NP1192]
IC50 [1]: 3.05 µM | NAT10 degradation rate ([2]; SiHa cells, 1.25 μM, 36 h): 28% | NAT10 degradation rate ([2]; SiHa cells, 2.5 μM, 36 h): 32% | NAT10 degradation rate ([2]; SiHa cells, 5 μM, 36 h): 40% | NAT10 degradation rate ([2]; SiHa cells, 10 μM, 36 h): 43% | NAT10 degradation rate (maximum) ([2]; SiHa cells, 20 μM, 36 h): 69% | NAT10 degradation ([2]; SiHa cells, after 24 h): 20% | NAT10 degradation rate ([2]; SiHa cells, panel TP1–32 at the same time and concentration, Figure 1E): 71% | hook effect in NAT10 degradation ([2]; concentrations as high as 20 μM): did not exhibit the classical hook effect | PD-L1 protein level [3]: pronounced downregulation of PD-L1 | RNA ac4C levels [4]: significant reduction in ac4C levels

Reference: paper PMC12670317, “Targeted NAT10 Degradation by PROTAC NP1192 Suppresses Hypoxia-Adaptive Glycolysis and Reinvigorates CD8^+ Effector T‑Cell Function for Synergistic Cancer Immunotherapy” (ACS Central Science, 2025)
